# According to paper PMC3894639 (Pharmacogenetics and genomics, 2013):
# Residue numbers refer to the chain shown, from its start. Where a name gives a salt, the structure may show the parent alone. Read-outs that look alike come from different tables or passages of the source.
# How the values were obtained:
# [1] = cited from earlier work
# OATP1B1 [2] = molecular target: T1, OATP1B1 (Homo sapiens, UniProt Q9Y6L6)
# T1 sequence (Q9Y6L6 1-691): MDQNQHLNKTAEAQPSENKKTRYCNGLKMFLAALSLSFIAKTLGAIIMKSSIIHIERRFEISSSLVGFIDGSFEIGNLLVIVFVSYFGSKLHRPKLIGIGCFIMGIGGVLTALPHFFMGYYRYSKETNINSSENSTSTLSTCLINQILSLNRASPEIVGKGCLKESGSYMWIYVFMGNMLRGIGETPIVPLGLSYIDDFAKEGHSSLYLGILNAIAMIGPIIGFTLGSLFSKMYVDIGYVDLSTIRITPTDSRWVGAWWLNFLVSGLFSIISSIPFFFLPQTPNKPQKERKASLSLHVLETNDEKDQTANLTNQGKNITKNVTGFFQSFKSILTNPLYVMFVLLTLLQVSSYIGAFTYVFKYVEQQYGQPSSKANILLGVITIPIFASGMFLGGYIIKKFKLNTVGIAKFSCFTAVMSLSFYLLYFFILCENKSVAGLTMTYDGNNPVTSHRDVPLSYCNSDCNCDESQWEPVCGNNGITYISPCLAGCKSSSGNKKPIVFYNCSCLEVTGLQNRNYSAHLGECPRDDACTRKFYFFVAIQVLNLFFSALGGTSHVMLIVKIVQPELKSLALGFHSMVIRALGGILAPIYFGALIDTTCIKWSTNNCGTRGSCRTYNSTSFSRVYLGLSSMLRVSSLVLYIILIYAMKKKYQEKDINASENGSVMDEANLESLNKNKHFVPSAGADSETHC
# OATP1B1 [3] = molecular target: T1, OATP1B1; remark: listed apart in the source
# [4] = protein unbound fraction; ref literature; cited from earlier work
# OATP1B1 [5] = molecular target: T1, OATP1B1; experiment: Prediction of clinical drug-drug interactions; details: for R (CER): cerivastatin as substrate; for Iin,max: Fa 1, Ka 0.1/min, Qh 1500 ml/min
# [6] = system: cerivastatin-induced rhabdomyolysis; details: cited from earlier work
# [7] = system: HEK293/FRT cells, empty vector; experiment: Uptake by HEK293/FRT cells with empty vector; format: cell-based, human
# OATP1B1 reference = molecular target: T2, OATP1B1 reference (Homo sapiens, UniProt Q9Y6L6); details: 20 nmol/l [3H]-ES, 5 min, 37°C
# T2 sequence (Q9Y6L6 1-691): T1 sequence (Q9Y6L6 1-691)
# OATP1B1 T345M = molecular target: T3, OATP1B1 T345M (Homo sapiens, UniProt Q9Y6L6, T345M); details: 20 nmol/l [3H]-ES
# T3 sequence (Q9Y6L6 1-691 T345M): T1 sequence (Q9Y6L6 1-691) with T345M
# OATP1B1*15 = molecular target: T4, OATP1B1*15 (Homo sapiens, UniProt Q9Y6L6, N130D/V174A); details: 20 nmol/l [3H]-ES
# T4 sequence (Q9Y6L6 1-691 N130D/V174A): T1 sequence (Q9Y6L6 1-691) with N130D, V174A
# SLCO1B1 521T>C = SLCO1B1 521T>C polymorphism; cited from earlier work
# OATP1B1 FS (974insGT) = details: 5 nmol/l [3H]-CER; frameshift insertion
# [8] = 5 nmol/l [3H]-CER, concentrations up to 100 µmol/l
# [9] = 20 nmol/l [3H]-ES, concentrations up to 100 µmol/l
# [10] = concentrations up to 3 µmol/l, limited by solubility
# [11] = at the oral dose listed per drug in Table 3 (clopidogrel 75 mg)
# [12] = R=1+fu×Iin,max/IC50, ES as substrate, oral dose listed per drug in Table 3
Structure (SMILES),IC50 (OATP1B1 [2]),Inhibition of OATP1B1-mediated uptake of cerivastatin (in words) (OATP1B1 [2]; [8]),IC50 (OATP1B1 [3]),Inhibition of OATP1B1-mediated uptake of ES (in words) (OATP1B1 [3]; [9]),other results
"COC(=O)[C@H](c1ccccc1Cl)N1CCC2SC(=O)C=C2C1 (some centres unmarked) [2-Oxo clopidogrel, 2-oxo clopidogrel]",8.18 µM,inhibited,8.97 µM,inhibited,"Cmax ([1]; clopidogrel oral dose 600 mg): 0.05 ng/mL; fu [4]: 0.02; R (ES) (OATP1B1 [5]; ES as substrate, clopidogrel oral dose 600 mg): 1.26; R (CER) (OATP1B1 [5]; clopidogrel oral dose 600 mg): 1.29; Iin,max (OATP1B1 [5]; clopidogrel oral dose 600 mg): 118.69 µmol/L"
"CCOC(=O)C1=C(COCCN)NC(C)=C(C(=O)OC)C1c1ccccc1Cl (centres unmarked) [Amlodipine, amlodipine]",35.5 µM,,39.6 µM,,
"Cc1ccc(-c2cc(C(F)(F)F)nn2-c2ccc(S(N)(=O)=O)cc2)cc1 [Celecoxib, celecoxib]",,did not inhibit,,did not inhibit,
"O=C(O)[C@H]1O[C@@H](OC(=O)[C@H](c2ccccc2Cl)N2CCc3sccc3C2)[C@H](O)[C@@H](O)[C@@H]1O [Clopidogrel acyl glucuronide, clopidogrel acyl glucuronide]",,inhibited,,inhibited,
"COC(=O)[C@H](c1ccccc1Cl)N1CCc2sccc2C1 [Clopidogrel, Clopidogrel hydrogen sulfate]",3.95 µM,inhibited,,inhibited,"Cmax ([1]; clopidogrel oral dose 600 mg): 31.4 ng/mL; Odds ratio for cerivastatin-induced rhabdomyolysis ([6]; clopidogrel use in the absence of gemfibrozil use, 95% CI 12.5-182): 47.8; Odds ratio for cerivastatin-induced rhabdomyolysis ([6]; clopidogrel use in the presence of gemfibrozil use, 95% CI 6.1-143): 29.6; inhibition at 5 min, 100 µmol/l (OATP1B1 [2]; human, probe [3H]-cerivastatin, 5 nmol/l): 52.7%; IC50 at 5 min (OATP1B1 [3]; human, probe [3H]-estrone-3-sulfate, 20 nmol/l): > 100 µM; R (CER) (OATP1B1 [5]; clopidogrel oral dose 600 mg): 1.63; Iin,max (OATP1B1 [5]; clopidogrel oral dose 600 mg): 124.40 µmol/L"
"C[C@]12CC[C@@H]3c4ccc(OS(=O)(=O)O)cc4CC[C@H]3[C@@H]1CCC2=O [ES, [^3H]-Estrone-3-sulfate ammonium salt]",,,,,"ES transport rate ([7]; 20 nmol/l [3H]-ES): 0.01±0.006 pmol/mg of protein/min; ES transport rate (OATP1B1 reference): 0.2±0.01 pmol/mg of protein/min; ES uptake, fraction of reference (OATP1B1 T345M): 0.43±0.07 of reference; Decrease in ES transport vs reference (OATP1B1*15): 66%"
C[C@]1(O)CC[C@H]2[C@@H]3CCC4=CC(=O)CC[C@]4(C)[C@@]3(F)[C@@H](O)C[C@@]21C [Fluoxymesterone],,,,,Inhibition of OATP1B1-mediated uptake of cerivastatin (in words) (OATP1B1 [2]; [10]): no inhibitory effects; Inhibition of OATP1B1-mediated uptake of ES (in words) (OATP1B1 [3]; [10]): no inhibitory effects
"COc1ccc(Cl)cc1C(=O)NCCc1ccc(S(=O)(=O)NC(=O)NC2CCCCC2)cc1 [Glyburide, glyburide]",,,,,fu [4]: 0.002
"N[C@@H](Cc1cc(I)c(Oc2cc(I)c(O)c(I)c2)c(I)c1)C(=O)O [Levothyroxine, levothyroxine]",0.88 µM,inhibited,2.04 µM,inhibited,"Cmax [1, 11]: 591 ng/mL; fu [4]: 0.01; R (ES) (OATP1B1 [5]; [12]): 1.00"
"CC(C)(O)c1ccccc1CC[C@@H](SCC1(CC(=O)O)CC1)c1cccc(/C=C/c2ccc3ccc(Cl)cc3n2)c1 [Montelukast, montelukast sodium]",2.04 µM,inhibited,1.4 µM,inhibited,"Cmax ([1]; in vivo, po, 75 mg): 542 ng/mL; R (ES) (OATP1B1 [5]; [12]): 1.01"
"CCc1ccc(CCOc2ccc(CC3SC(=O)NC3=O)cc2)nc1 (centres unmarked) [Pioglitazone, pioglitazone hydrochloride]",39.6 µM,inhibited,6.8 µM,inhibited,"Cmax ([1]; in vivo, po, 75 mg): 1500 ng/mL; R (ES) (OATP1B1 [5]; [12]): 1.01"
"CO[C@H]1/C=C/O[C@@]2(C)Oc3c(C)c(O)c4c(O)c(c(/C=N/N5CCN(C)CC5)c(O)c4c3C2=O)NC(=O)/C(C)=C\C=C\[C@H](C)[C@H](O)[C@@H](C)[C@@H](O)[C@@H](C)[C@H](OC(C)=O)[C@@H]1C [Rifampin, rifampin]",5.65 µM,,0.88 µM,,"Cmax [1, 11]: 10000 ng/mL; R (ES) (OATP1B1 [5]; [12]): 8.56"
"CS(=O)(=O)c1ccc(C2=C(c3ccccc3)C(=O)OC2)cc1 [Rofecoxib, rofecoxib]",1.17 µM,inhibited,5.65 µM,inhibited,"Cmax [1, 11]: 320 ng/mL; R (ES) (OATP1B1 [5]; [12]): 1.15"
"CN(CCOc1ccc(CC2SC(=O)NC2=O)cc1)c1ccccn1 (centres unmarked) [Rosiglitazone, Rosiglitazone-potassium salt]",43.4 µM,,4.27 µM,,"Cmax [1, 11]: 598 ng/mL"
"COCc1c(C(C)C)nc(C(C)C)c(/C=C/[C@@H](O)C[C@@H](O)CC(=O)O)c1-c1ccc(F)cc1 [cerivastatin, [^3H]-Cerivastatin sodium salt]",,,,,"Reduction in cerivastatin uptake (SLCO1B1 521T>C): 40%; Cerivastatin uptake transport rate ([7]; 5 nmol/l [3H]-CER): 0.02±0.01 pmol/mg of protein/min; Cerivastatin uptake, % of reference (OATP1B1 FS (974insGT)): 3.4 % of reference"
"CCCCC1=NC2(CCCC2)C(=O)N1Cc1ccc(-c2ccccc2-c2nnn[nH]2)cc1 [irbesartan, Irbesartan]",,did not inhibit,,did not inhibit,
Cc1c(OCC(F)(F)F)ccnc1C[S+]([O-])c1nc2ccccc2[nH]1 (centres unmarked) [lansoprazole],,did not inhibit,,did not inhibit,
